Laboratory results reported in US20060211744A1, “3-Pyridinecarboxamide reduces nerve degeneration” (Children's Medical Center, priority 2005, published 2006).

Legend:
[1] = system: cultured hippocampal neurons; test: Synaptic loss and process degeneration in cultured hippocampal neurons (dominant-negative Nmnat1); format: cell-based; settings: 50-200 μM, up to 72 hr
Description: We next attempted to examine whether decreasing NAD levels can induce similar “dying-back” axon degeneration in neurons with established synaptic connections. Such experiments might allow us to assess whether the degenerative processes in axons and other neuronal structures, including synaptic structures and dendritic processes, share similar mechanisms. To do this, we introduced both wild type and dominant negative Nmnat1 into cultured hippocampal neurons at 20 days in vitro (DIV 20), when their synaptic connections have formed and matured (Brewer et al. 1993), and examined their effects on axons as well as dendrites and synapses. As a conventional approach to visualize these neuronal structures, we also co-infected the hippocampal neurons with HSV expressing YFP. […] Moreover, neuronal NAD levels declined from 24-48 hr post-infection with viruses expressing dominant-negative Nmnat1 but not wild type Nmnat1 or YFP. Thus, we decided to focus our analysis on the first 60 hours post-infection.
To monitor changes in synaptic structures, we co-infected DIV20 neurons with HSV expressing YFP and wild type or the mutant Nmnat1, and quantified both spine density and the length and branching of axons and dendrites. As the density of dendritic spines has been considered a reliable indicator for synapse number (reviewed by Hering and Sheng, 2001), we performed high-resolution YFP imaging in neurons co-expressing YFP and Nmnat1 proteins at the indicated time points post-infection to measure the spine densities in these co-infected neurons. Dendrite length and branching patterns were analyzed using Sholl's method of regularly spaced concentric circles centered on the neuronal soma (Sholl, 1953). […]
In the experiments described above, we also performed immunostaining with antibodies against the presynaptic marker bassoon, and found a decrease of positively-stained synaptic structures. However, due to the complex morphology of the axons that makes it extremely difficult to quantify the axonal length in DIV20 hippocampal neurons, we […]. […]

[2] = system: experimental autoimmune encephalomyelitis (EAE) mice; format: in vivo
Description: EAE is an inflammatory, demyelinating disease that can be induced by immunizing animals against myelin antigens, and is an accepted animal model for multiple sclerosis (MS) as it has similarities based on both the histopathology and the clinical course of the affected animals. In methods adapted from Lo et al. (J Neurophysiol. 2003 November;90(5):3566-71) we examine the effect of nicotinamide on axonal degeneration within the dorsal columns (cuneate fasciculus) and dorsal corticospinal tracts of the spinal cord.
Induction of EAE. Experiments are carried out in accordance with National Institutes of Health guidelines for the use of laboratory animals. C57/BL6 mice 6-10 wk of age are injected subcutaneously with 200 μl of an emulsion of 300 μg of rat myelin oligodendrocyte glycoprotein (MOG) 35-55 peptide (Keck Biotechnology Center, Yale University) in incomplete Freund's adjuvant (IFA, Sigma, St. Louis, Mo.) supplemented with 250-500 μg of Mycobacterium tuberculosis H37Ra (Difco, Detroit, Mich.). The MOG injection, with mycobacterium supplemented IFA, is repeated in the opposite flank 1 wk later. The mice also receive an injection of 250-500 ng pertussis toxin (Sigma) in 200 μl PBS ip immediately after the first immunization with MOG and then again 48 h later.
Nicotinamide treatment. Beginning on day 10 after the initial MOG injection, control and EAE-induced mice are fed pelleted mice chow incorporating nicotinamide (Sigma) to achieve an average daily consumption of 500 mg/kg nicotinamide. A separate group of EAE mice are fed the identical standard mice chow not containing nicotinamide. Serum nicotinamide levels are measured by HPLC (Chatzimichalakis et al, J Sep Sci. (2004) 27:1181-8) from two mice in each group on day 14 and on the day of either perfusion (days 27-28) or electrophysiological study (days 24-30).
Mice are observed daily for clinical signs and scored on a 0-6 scale, with 0.5 gradations for intermediate scores, as follows: 0, normal without clinical signs; 1, flaccid tail; 2, abnormal righting reflex; 3, partial hindlimb paralysis; 4, complete hindlimb paralysis; 5, moribund; and 6, death.
Electrophysiological recordings. Fourteen adult male C57/BL6 mice are used for assessing spinal cord conduction. Untreated EAE (n=6) and nicotinamide-treated EAE (n=4) mice are studied between days 24 and 30 and age-matched nicotinamide-treated mice (n=4) are used as controls. Mice are anesthetized with halothane, and deep anesthesia is maintained with 1.1% halothane through a tracheal cannula by artificial ventilation (75-80 strokes/min, 0.7 ml/stroke) and verified by the absence of a withdrawal reflex to noxious peripheral pinch. Heartbeats (˜360 beats/min) and body temperature are carefully monitored. Mice are fixed in a stereotaxic apparatus (Kopf Instruments). A midline incision is made through the skin, a laminectomy is performed, and the dura is carefully cut to expose the lower thoracic and lumbar spinal cord regions. Silver wire electrodes (0.01-in diam, A-M Systems) insulated except at the tips are used for stimulation of dorsal column axons at L4-5 and recording of compound action potentials (CAP) at T11-12. Using stereotaxic measurements, the electrodes are positioned 8 mm apart at the surface of the midline spinal cord. Pancuronium bromide (0.3 mg/kg, Sigma) is injected ip to prevent further muscular contractions throughout the experiment. The signal from the recording electrode is amplified with filters set at 300-3,000 Hz (Dam 80, WPI) and collected (CED 1401, Cambridge Electronic Design), and a computer is used for data analysis (Spike 2 program, Cambridge Electronic Design). Single-current pulses (0.05 ms) are applied through a stimulus isolation unit (A365, WPI, and Master-8, AMPI) in increments (0.2, 0.3, 0.6, 0.8, and 1 mA). The amplitude of CAP is calculated as the value between the positive and negative peaks of the biphasic wave. […]

[3] = nicotinamide-treated EAE, days 24-30

NC(=O)c1cccnc1 [nicotinamide, 3-pyridinecarboxamide]
dendritic spine quantity or structure, compound alone [1]: did not induce significant changes | effect on dorsal corticospinal column and dorsal column (cuneate fasciculus) axons ([2]; EAE mice, 27-28 days): significant protective effect | clinical course versus untreated EAE mice ([2]; EAE mice, chow 500 mg/kg daily from day 10): less severe clinical course | clinical score (0-6 scale) ([2]; EAE mice, chow 500 mg/kg daily from day 10, day 27-28 (untreated EAE 3-4)): 1-2 | clinical signs in nicotinamide-treated control mice ([2]; mouse, in vivo): do not display any pathological clinical signs | difference in density of neurofilament-labeled axons, untreated versus nicotinamide-treated controls ([2]; mouse, in vivo): not significant | average CAP amplitude and area versus nicotinamide-treated control group [2, 3]: not significantly different | conduction velocity [2, 3]: maintained close to normal levels
